Here are results for 16 molecules from US8993575B2, “[1,3,4] oxadiazole derivative and application thereof” (Huazhong University of Science & Technology, priority 2011, dated 2015).

The inhibition is the drop in the measured response relative to a control, in per cent. One may read the pIC50 as the IC50 on a negative log10 scale, so that one unit is a factor of ten. A lower pIC50 goes with a large IC50. A word on the ED50: it is the midpoint of the dose-response relation. A word on the LD50: it is the dose at which mortality reaches 50%.

The target of series [1] is 5HT2A receptor (Rattus norvegicus (Rat), UniProt P14842). The experiment in a line: 5HT2A receptor assay ([3H]-Ketanserin, rat brain mantle membrane). The series is classed as binding. Particulars: for inhibition at 10 µM: read-out: 5HT2A Inhibition %; for pIC50: values marked a = IC50.
5HT2A receptor, sequence (P14842 whole entry): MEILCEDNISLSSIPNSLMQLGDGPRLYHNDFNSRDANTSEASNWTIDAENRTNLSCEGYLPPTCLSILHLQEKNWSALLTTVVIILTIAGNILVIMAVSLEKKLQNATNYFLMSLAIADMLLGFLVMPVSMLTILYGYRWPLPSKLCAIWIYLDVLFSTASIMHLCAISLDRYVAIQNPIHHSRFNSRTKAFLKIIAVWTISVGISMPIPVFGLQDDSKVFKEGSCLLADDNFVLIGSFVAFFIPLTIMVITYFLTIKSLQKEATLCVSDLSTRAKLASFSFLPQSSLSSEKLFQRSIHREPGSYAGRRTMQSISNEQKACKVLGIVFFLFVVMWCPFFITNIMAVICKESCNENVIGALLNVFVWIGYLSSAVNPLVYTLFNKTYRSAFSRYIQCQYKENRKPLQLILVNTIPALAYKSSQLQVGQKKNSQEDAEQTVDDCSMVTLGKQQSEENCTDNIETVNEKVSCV
In series [2] the target is D2 receptor (Rattus norvegicus (Rat), UniProt P61169). The experiment in a line: D2 receptor binding assay (3H-Spiperone, rat brain striatum membrane). Particulars: read-out: D2 Inhibition %.
D2 receptor, sequence (P61169 whole entry): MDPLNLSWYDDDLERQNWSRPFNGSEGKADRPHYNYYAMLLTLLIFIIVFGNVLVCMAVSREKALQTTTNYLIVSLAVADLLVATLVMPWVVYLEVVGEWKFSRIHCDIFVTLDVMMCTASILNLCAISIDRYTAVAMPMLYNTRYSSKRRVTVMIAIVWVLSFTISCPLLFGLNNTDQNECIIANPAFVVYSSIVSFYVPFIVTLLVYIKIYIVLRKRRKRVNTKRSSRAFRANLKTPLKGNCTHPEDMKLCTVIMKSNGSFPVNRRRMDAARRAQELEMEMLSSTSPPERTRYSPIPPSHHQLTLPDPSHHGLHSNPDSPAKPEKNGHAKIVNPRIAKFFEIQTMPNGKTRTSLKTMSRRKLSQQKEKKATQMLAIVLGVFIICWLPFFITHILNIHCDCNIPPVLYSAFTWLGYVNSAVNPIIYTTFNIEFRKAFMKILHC
Procedure: Brain striatum was rapidly taken, and 2 brain striatums were combined into a centrifuge tube, to which 3 ml of buffer (0.05 M Tris-HCl buffer, containing NaCl 120 mM, KCl 5 mM, MgCl2 1 mM, CaCl2 1 mM) was added, homogenization was conducted for 3-4 s at level 4 for four times, and then 5 ml of buffer was then added. The weight of the homogenized tubes were adjusted using a balance, and centrifugation was conducted at 12000 r, 4° C. for 20 min. The supernatant was discarded, and 3 ml of buffer was added (0.05 M Tris-HCl buffer, containing NaCl 120 mM, KCl 5 mM, MgCl2 1 mM, CaCl2 1 mM). Vortex mixer was used for blending, and then 5 ml of buffer was added (0.05 M Tris-HCl buffer, containing NaCl 120 mM, KCl 5 mM, MgCl2 1 mM, CaCl2 1 mM). Centrifugation was conducted and repeated 3 times. After the centrifugations, the supernatant was discarded, and the pellets were stored at −80° C. for future use.
Beckman LS-6500 Multi-function Liquid Scintillation Counter was used.
(1) The prepared membrane was first applied with appropriate amount of buffer (0.05 M Tris-HCl buffer, containing NaCl 120 mM, KCl 5 mM, MgCl2 1 mM, CaCl2 1 mM), and homogenizer was used for evenly dispersing. 15 tubes were mixed into a 100 ml container, and appropriate amount of homogenized liquid was added to give 50 ml of membrane suspension, which was reserved for future use.
(2) 100 μL of membrane preparation and 100 μL of buffer (0.05 M Tris-HCl buffer, containing NaCl 120 mM, KCl 5 mM, MgCl2 1 mM, CaCl2 1 mM) were added into each reaction tube.
(3) 100 μL of homogenized liquid was added into the total binding tube (TB), 100 μL of Butaclamol (final concentration 10^−5 M) was added into the non-specific binding tube (NB), and 100 μL of the test compound (final concentration 10^−5 M) was added into the specific binding tube (SB) for each compound.
(5) Each of the reaction tubes was incubated at 37° C. for 20 min. After the reaction was completed, the bound ligands were rapidly filtered under reduced pressure, and the ice-chilled assay buffer was used for adequate washing. The filter was taken out and put into a 3 ml scintillation vial, and 2 ml of toluene scintillation solution was added and blended.
(6) The scintillation vials were put into Liquid Scintillation Counter for counting. Inhibitory rate(1%)=[(Total binding tube cpm−compound cpm)/(Total binding tube cpm−non-specific binding tube cpm)]×100%
Each assay for the compounds was conducted in duplicate.
Series [3] deals with 5HT1A receptor (Rattus norvegicus (Rat), UniProt P19327). The series can be described thus: 5HT1A receptor binding assay (3H-8-OH-DPAT, rat brain mantle membrane). The following applies: for inhibition at 10 µM: test compound final concentration 10^-5 M; for pIC50: values marked a = IC50. On the procedure: Incubation at 37° C. was conducted for 10 min, the weight of the tubes were adjusted using a balance after incubation. […] Centrifugation was conducted and repeated 3 times.
5HT1A receptor, sequence (P19327 whole entry): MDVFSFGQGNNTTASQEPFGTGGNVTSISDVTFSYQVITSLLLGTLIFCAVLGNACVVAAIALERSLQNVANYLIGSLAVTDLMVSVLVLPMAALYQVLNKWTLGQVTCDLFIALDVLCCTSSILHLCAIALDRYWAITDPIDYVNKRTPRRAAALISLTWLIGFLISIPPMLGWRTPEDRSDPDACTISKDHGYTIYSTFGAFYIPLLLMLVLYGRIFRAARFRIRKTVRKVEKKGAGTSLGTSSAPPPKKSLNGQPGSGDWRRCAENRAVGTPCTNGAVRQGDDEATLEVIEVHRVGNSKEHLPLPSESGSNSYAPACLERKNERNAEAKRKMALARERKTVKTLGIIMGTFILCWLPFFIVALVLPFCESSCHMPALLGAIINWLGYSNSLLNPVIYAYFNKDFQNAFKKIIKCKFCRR

The target in series [4] is 5HT2C (Rattus norvegicus (Rat), UniProt P08909). The experiment in a line: 5HT2C receptor binding assay ([3H]-mesulergine, rat brain mantle membrane). Particulars: test compound final concentration 10^-5 M. On the procedure:
Incubation at 37° C. was conducted for 10 min, the weight of the tubes were adjusted using a balance after the incubation. […] Centrifugation was conducted (repeated 3 times).

Series [5] concerns the target D3 receptor (Homo sapiens (Human), UniProt P35462). The experiment in a line: D3 receptor binding assay ([3H]-Spiperone, HEK-293 cells). Particulars: test compound final concentration 10 μmol/L. The procedure:
After the cells were centrifuged at 1000 rpm for 5 min, the supernatant was discarded, and the cell pellet was collected and stored in a −20° C. fridge for reservation. It was re-suspended with Tris-Cl (pH 7.4) in the assay.
Tris was divided into aliquots by Genetimes Technology Inc.
Competitive binding test for receptors: 20 μl of each of the test compounds and 20 μl of the radioactive ligand together with 160 μl of the receptor proteins were added into the reaction tubes, and the final concentrations of the test compound and the positive drug were all 10 μmol/L. After 50 min of incubation in 30° C. water bath, the tubes were immediately moved to ice bath to terminate the reactions. GF/C glass fiber filter papers were used for rapid sucking filtration on a Millipore cell sample collector, elution buffer (50 mM Tris-HCl, PH 7.4) was applied for 3 ml×3 times, and microwave was applied for 4-5 min for drying. The filter papers were moved into 0.5 ml centrifuge tubes, and 500 μl of lipid-soluble scintillation solution was added. The tubes were allowed to stand still for over 30 min in dark, and the intensities of radioactivity were measured by a counter.

Series [6] relates to KM mice (catalepsy). The series can be described thus: Catalepsy assay in mice. The format is in vivo. Particulars: for catalepsy/MK-801 / catalepsy/apomorphine: ratio of ED50 values. On the procedure:
(§1) The durations for the mice to maintain the posture with the two forepaws on the bars were recorded, and 30 s of spasticity without moving was considered as the positive response. In the case the forepaws of the mice were not put down persistently, the observation was terminated at 60 s. The numbers of animals with positive response in each of the compound dosage groups were counted.

Series [7] can be described thus: Catalepsy assay in mice. The series is classed as in vivo. Particulars: both sexes, Kunming (KM), mouse, in vivo; po, mice. On the procedure: as §1
A short description of series [8]: in vivo. Particulars: both sexes, mouse, in vivo, po. The procedure: KM mice (half male and half female) were randomly divided into several groups (with 2-5 mice in each group), which were respectively the 2000 mg/kg groups for each compound, and the solvent group. 0.2 ml/10 g were administered intragastrically. The death of the animals in 3 days were observed. (In the case 3 or more animals survived in 3 days without notable abnormity in their life states, the observation was continued until the assay was completed in 7 days. In the case 3 or more animals died in 3 days, the median lethal dose method was used to determine the LD50).
KM mice (half male and half female) were randomly divided into several groups (with 4 mice in each group), which were respectively the 1500 mg/kg, 1000 mg/kg, 500 mg/kg groups for each compound, and the solvent group. 0.2 ml/10 g were administered intragastrically, and the death of the animals in 1-3 days were observed.

The subject of series [9] is apomorphine induced clambering of mice. The experiment in a line: Apomorphine induced clambering assay of mice. Particulars: for ED50: Mus musculus, po, read-out: apomorphine induced clambering ED50; for improvement of apomorphine induced clambering symptoms (in words): compared to the model group.
Procedure: Apomorphine provided by Sigma Company was dissolved in 0.9% NaCl (containing 0.1% vitamin C) before use, and was freshly formulated before use.
Instruments: self-made clambering cage, chronograph.
After 5 min of adaptation, the behaviors of the mice at 10-11, 20-21, 30-31 min after the injection of apomorphine were observed.
Series [10] concerns MK-801 high activity mice. The experiment in a line: MK-801 induced high activity in mice. The format is in vivo. Particulars: for Total moving distance: MK-801 high activity mice, within 90 min; for ED50: Mus musculus, po, mice, read-out: MK-801 induced high activity ED50; for improvement of MK-801 induced high activity (in words): compared to the model group. The procedure:
Ascorbic acid was provided by Sinopharm Chemical Reagent Co. Ltd.
MK-801 was produced by Sigma Company, USA; the formulation method: 0.1% vitamin C was used to formulate a 1 mg/ml solution.
Tween 80, with the concentration of 10%.
Mice with qualified body weight were selected, and randomly divided into blank group, model group, positive control group (risperidone group) and drug group. […] 1 H after the administration, 0.1% of ascorbic acid was intraperitoneally injected to the blank group at 0.1 ml/10 g; and the model group, the positive control group (30 min) and the drug group were intraperitoneally injected the MK-801 solution at 0.1 mg/kg. Subsequently, the spontaneous activities of the mice of each group in 90 min were measured.

The test system of series [11] is four receptors (D2, D3, 5-HT1A and 5-HT2A). The experiment in a line: In vitro receptor binding assays, summary over four receptors. The following applies: in vitro assay.
Setting [12] is: single intragastric administration in mice, read-out: LD50.

Molecules are shown by their SMILES. pIC50: −log10 of the molar value. Where two headings read alike, the source gives them in different places. A value given as a limit tells only on which side of the number the result lay.

5HT2C, sequence (P08909 33-460 limits assumed): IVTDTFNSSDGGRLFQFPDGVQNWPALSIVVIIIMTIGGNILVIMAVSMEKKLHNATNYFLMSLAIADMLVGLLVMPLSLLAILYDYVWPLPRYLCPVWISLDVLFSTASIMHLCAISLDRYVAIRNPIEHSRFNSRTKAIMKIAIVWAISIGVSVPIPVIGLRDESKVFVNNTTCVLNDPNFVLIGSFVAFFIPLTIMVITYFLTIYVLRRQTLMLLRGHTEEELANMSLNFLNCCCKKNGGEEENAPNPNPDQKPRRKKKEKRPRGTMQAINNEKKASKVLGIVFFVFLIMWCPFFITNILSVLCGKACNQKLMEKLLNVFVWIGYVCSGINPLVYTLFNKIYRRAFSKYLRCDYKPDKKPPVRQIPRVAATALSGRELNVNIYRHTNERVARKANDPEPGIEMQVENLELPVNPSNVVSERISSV
D3 receptor, sequence (P35462 whole entry): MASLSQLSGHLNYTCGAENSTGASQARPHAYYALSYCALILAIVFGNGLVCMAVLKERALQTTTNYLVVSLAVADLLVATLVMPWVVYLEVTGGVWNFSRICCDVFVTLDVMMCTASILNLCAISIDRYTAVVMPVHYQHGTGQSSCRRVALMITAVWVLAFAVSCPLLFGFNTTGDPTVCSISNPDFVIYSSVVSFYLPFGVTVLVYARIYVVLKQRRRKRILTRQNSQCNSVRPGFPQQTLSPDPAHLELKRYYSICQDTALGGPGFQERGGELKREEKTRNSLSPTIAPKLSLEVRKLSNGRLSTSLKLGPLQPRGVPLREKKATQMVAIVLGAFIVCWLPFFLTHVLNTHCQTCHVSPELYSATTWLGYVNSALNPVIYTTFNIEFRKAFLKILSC

For the molecule `c1ccc(-c2nnc(SCCCN3CCN(c4nsc5ccccc45)CC3)o2)cc1` [Compound 1], the inhibition at 10 µM was 87.1% in [1], 62.4% in series [2] and 17.9% in [3].
As to `Fc1ccc2c(C3CCN(CCCSc4nnc(-c5ccccc5)o4)CC3)noc2c1` [Compound 2], the inhibition at 10 µM in series [1] amounted to 11%; in series [2] it was 77.5%; in [3], 6.1%.
In the case of `COc1ccc(-c2nnc(SCCCN3CCN(c4nsc5ccccc45)CC3)o2)cc1` [Compound 3], the negative-log IC50 (pIC50) in [1] was 8.64; in series [3] it was 8.05. Moreover, the inhibition at 10 µM in [4] is 98.5%; in [2], 108%; in [5] it was 99.5%.
Turning to `COc1ccc(-c2nnc(SCCCN3CCC(c4noc5cc(F)ccc45)CC3)o2)cc1` [Compound 4], the “EPS at effective dosage (in words)” value in [6] was “did not cause EPS”. The catalepsy/MK-801 in series [6] is on record as 41.56. Also, in [6], the catalepsy/apomorphine is recorded as 395.30. The median effective dose (ED50) in series [7] turned out to be 640 mg/kg; in [9], 1.62 mg/kg; in series [10] it was 15.4 mg/kg. Also, the pIC50 in series [1] was 9.29; in series [3], 7.90. Also, the inhibition at 10 µM in series [4] is 82.1%; in series [2] it was 113%; in [5] it was 101%. In series [8] (setting [12]), the LD50 is more than 2000 mg/kg. In addition, the “improvement of apomorphine induced clambering symptoms (in words)” value in [9] is reported as “effectively improve”. Moreover, the Total moving distance in [10] (3 mg/kg intragastric) came to 24988.83 ± 7617.21 cm; in series [10] (5 mg/kg intragastric) it was 22872.82 ± 10538.51 cm; in series [10] (10 mg/kg intragastric), 13574.51 ± 5340.38 cm; in [10] (30 mg/kg intragastric) it was 7773.56 ± 3681.67 cm; in series [10] (100 mg/kg intragastric) it was 6954.61 ± 4931.26 cm. For the same molecule, in series [10], the “improvement of MK-801 induced high activity (in words)” value is “significantly improve”.
With `Clc1ccc(-c2nnc(SCCCN3CCN(c4nsc5ccccc45)CC3)o2)cc1` [Compound 5], the pIC50 in [1] is 7.20; in [3], 7.57. Besides, the figures for the inhibition at 10 µM in series [4], in series [2] and in [5] were 56.5%, 92.7% and 98.7%, respectively.
In the case of `Fc1ccc2c(C3CCN(CCCSc4nnc(-c5ccc(Cl)cc5)o4)CC3)noc2c1` [Compound 6], in series [6], the “EPS at effective dosage (in words)” value is listed as “did not cause EPS”. Further, the catalepsy/MK-801 in [6] is recorded as 28.02. In addition, the catalepsy/apomorphine in [6] came to 22.62. In addition, the values for the ED50 in [7], in series [9] and in [10] were 92.7 mg/kg, 4.1 mg/kg and 3.31 mg/kg, respectively. Also, the negative logarithm of the IC50 (pIC50) in series [1] was 7.82; in series [3] it was 7.70. In addition, the inhibition at 10 µM was 68.1% in series [4], 104% in series [2] and 101% in series [5]. Moreover, the LD50 in [8] (setting [12]) was more than 2000 mg/kg. In series [9], the “improvement of apomorphine induced clambering symptoms (in words)” value is given as “effectively improve”. The Total moving distance is given as 20912.66 ± 9887.01 cm in series [10] (3 mg/kg intragastric); 15745.74 ± 5475.41 cm in [10] (5 mg/kg intragastric); 12997.51 ± 7859.06 cm in [10] (10 mg/kg intragastric); 6741.35 ± 2251.52 cm in [10] (20 mg/kg intragastric); 8454.72 ± 7864.50 cm in series [10] (30 mg/kg intragastric). Also, the “improvement of MK-801 induced high activity (in words)” value in [10] is “significantly improve”.
Take `FC(F)(F)c1ccc(-c2nnc(SCCCN3CCN(c4nsc5ccccc45)CC3)o2)cc1` [Compound 7, 2-((3-(4-(3-benzisothiazole)-1-piperazinyl)propylthio)-5-(4-trifluoromethyl)phenyl)-1,3,4-oxadiazole]: the inhibition at 10 µM was determined as 98.8% in [1], 80.6% in series [2] and 113% in [3].
For `Fc1ccc2c(C3CCN(CCCSc4nnc(-c5ccc(C(F)(F)F)cc5)o4)CC3)noc2c1` [Compound 8, 2-((3-(4-(3-(6-fluoro-benzisoxazole))-1-piperidyl)propylthio)-5-(4-trifluoromethyl)phenyl)-1,3,4-oxadiazole] the same measures were 101%, 105% and 20.8%.
On to `Fc1ccc(-c2nnc(SCCCN3CCN(c4nsc5ccccc45)CC3)o2)cc1` [Compound 9, 2-((3-(4-(3-benzisothiazole)-1-piperazinyl)propylthio)-5-(4-fluoro)phenyl)-1,3,4-oxadiazole], for which the inhibition at 10 µM came out at 103% in [1], 84.8% in series [2] and 107% in series [3].
For `Fc1ccc(-c2nnc(SCCCN3CCC(c4noc5cc(F)ccc45)CC3)o2)cc1` [Compound 10, 2-((3-(4-(3-(6-fluoro-benzisoxazole))-1-piperidyl)propylthio)-5-(4-fluoro)phenyl)-1,3,4-oxadiazole] the same measures were 117%, 88.6% and 56.4%.
For the molecule `c1ccc2c(-c3nnc(SCCCN4CCN(c5nsc6ccccc56)CC4)o3)cccc2c1` [Compound 11], the inhibition at 10 µM in series [1] came out at 91%; in [2] it was 25.7%; in series [3], 45.8%. In addition, the “affinities to D2, D3, 5-HT1A and 5-HT2A receptors (in words)” value in series [11] is given as “relatively stronger affinities”. Besides, the “affinity compared to aripiprazole (in words)” value in series [11] is on record as “equivalent to aripiprazole”.
Consider `c1csc(-c2nnc(SCCCN3CCN(c4nsc5ccccc45)CC3)o2)c1` [Compound 13], for which the figures for the inhibition at 10 µM in series [1], in series [2] and in series [3] were 101%, 47.8% and 95.9%, respectively.
The corresponding values for `c1ccc2c(N3CCN(CCCSc4nnc(-c5ccncc5)o4)CC3)nsc2c1` [Compound 15] are 95.1%, 88.1% and 114%.
The corresponding values for `Fc1ccc2c(C3CCN(CCCSc4nnc(-c5ccncc5)o4)CC3)noc2c1` [Compound 16] are 107%, 45.9% and 86.7%.
With `O=C1CCc2ccc(OCCCCN3CCN(c4cccc(Cl)c4Cl)CC3)cc2N1` [aripiprazole], the LD50 in series [8] (KM) amounted to 1400 mg/kg.
Regarding `O=C1Cc2cc(CCN3CCN(c4nsc5ccccc45)CC3)c(Cl)cc2N1` [ziprasidone], the LD50 in [8] (setting [12]) turned out to be 2000 mg/kg.
